Experiment in all cases: NCI-60 cell line screen, 48 h
For assay [1], the system named is K-562 leukemia.
In assay [2] the test system is NCI-H226 lung.
Assay [3] relates to PC-3 prostate.
Assay [4] concerns MDA-MB-231 breast.
The subject of assay [5] is M14 melanoma.
The test system of assay [6] is SNB-75 CNS.
The test system of assay [7] is NCI/ADR-RES ovarian.
For assay [8], the system named is OVCAR-8 ovarian.
For assay [9], the system named is COLO 205 colon.
Assay [10] has as its system CAKI-1 renal.

Structures are written as SMILES.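 48-hour exposure; five concentrations; linearly interpolated endpoints. GI50: concentration for 50% inhibition of growth. TGI denotes the concentration required for complete inhibition of growth.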

As for `Cc1cc2cc3cc(C)c(N(C)C)cc3[n+](C)c2cc1N(C)C`, the GI50 was 3.14 µM in [1]; 5.68 µM in [2]; 2.46 µM in assay [3]; 3.17 µM in assay [4]; 4.68 µM in [5]; 3.7 µM in assay [6]. Further, the GI50 in [7] was 22.4 µM; in assay [8], 2.72 µM; in [9] it was 2.51 µM; in assay [10] it was 2.7 µM. For the same molecule, the TGI was more than 100 µM in assay [1]; 48 µM in [2]; 33.8 µM in assay [3]; 9 µM in [4]; 19.8 µM in [5]; 31.4 µM in assay [6]. The TGI in [7] was more than 100 µM; in [8] it was 14.7 µM; in assay [9], 17.5 µM; in [10], more than 100 µM.
Consider `CS(=O)(=O)OCC1OC(n2ccc(NC(=O)c3ccccc3)nc2=O)CC1OS(C)(=O)=O` (stereo not given), for which the TGI in [1], in [2], in assay [3], in assay [4], in [5] and in [6] was more than 100 µM throughout. Further, the TGI in assay [7], in assay [8], in assay [9] and in [10] was more than 100 µM throughout.
As to `CC/C(=C(/c1ccc(OCCN(C)C)cc1)c1ccc(OC(=O)CCC(=O)c2c(C)[nH]c(/C=C3\N=C(c4ccc[nH]4)C=C3OC)c2C)cc1)c1ccccc1`, the GI50 was 2.32 µM in assay [1]; 3.54 µM in assay [2]; 1.78 µM in [3]; 0.441 µM in [4]; 2.06 µM in assay [5]; 2.45 µM in assay [6]. In addition, the GI50 in assay [7] was 3.62 µM; in [8], 2.73 µM; in assay [9], 1.9 µM; in assay [10], 2.66 µM. Also, the TGI in assay [1] is 6.37 µM; in assay [2], 22.5 µM; in [3] it was 17.1 µM; in assay [4] it was 2.38 µM; in assay [5], 4.92 µM; in [6], 9.86 µM. Moreover, the TGI in [7] was 15.9 µM; in assay [8], 10.3 µM; in assay [9], 7.24 µM; in assay [10], 16 µM.
As for `O=S(=O)(Cc1ccc(Cl)cc1Cl)c1ccc(Cl)cc1`, the GI50 in assay [1] was 0.303 µM; in assay [2], 4.52 µM; in assay [3], 1.28 µM; in [4], 2.38 µM; in [5] it was 0.5 µM; in assay [6] it was 0.732 µM. Moreover, the GI50 in assay [7] is 0.478 µM; in assay [8], 1.22 µM; in [9], 0.548 µM; in assay [10], 0.52 µM. Also, the TGI in assay [1] is more than 100 µM; in [2] it was more than 100 µM; in assay [3] it was more than 100 µM; in assay [4], more than 61.6 µM; in [5], 48.2 µM; in assay [6], more than 27.5 µM. The TGI is 3.59 µM in [7], more than 100 µM in [8], 5.52 µM in assay [9] and more than 100 µM in assay [10].
Take `COc1cc2c3c(n(CCCN(CCN)CCCn4c5c(c6cc(OC)c(OC)cc6c4=O)C(=O)c4cc6c(cc4-5)OCO6)c(=O)c2cc1OC)-c1cc2c(cc1C3=O)OCO2`: the GI50 is 2.73 µM in [1]; 0.449 µM in [2]; 2.57 µM in assay [3]; 3.3 µM in assay [4]; 0.752 µM in assay [5]; 2.54 µM in [6]. Also, the GI50 in assay [7] was 2.22 µM; in [8] it was 1.53 µM; in [9], 0.645 µM; in [10] it was 0.271 µM. The TGI in [1] is more than 32.5 µM; in assay [2], 2.76 µM; in assay [3], more than 45.2 µM; in assay [4] it was 17.3 µM; in [5] it was 18.3 µM; in [6], more than 100 µM. For the same molecule, the TGI in [7] is more than 76.1 µM; in assay [8], more than 42.2 µM; in assay [9], more than 57 µM; in assay [10], 3.23 µM.
As to `O=c1c2c3c(sc2n2c(-c4cc(-c5ccccc5)no4)nnc2n1Cc1ccccc1)CCCC3`, the GI50 in [1] was 7.01 µM; in [2] it was 20 µM; in assay [3], 9.19 µM; in [4] it was 4.94 µM; in [5], 27.2 µM; in [6], 11.2 µM. Also, the GI50 in [7] was 30.2 µM; in [8], 21.4 µM; in [9] it was 1.23 µM; in [10], 10.2 µM. Also, the TGI in [1] is more than 68.1 µM; in [2], 58.3 µM; in assay [3], more than 100 µM; in assay [4], 55.2 µM; in assay [5], more than 100 µM; in [6], more than 100 µM. Besides, the TGI in assay [7] is more than 100 µM; in assay [8], more than 100 µM; in [9] it was more than 40.7 µM; in assay [10], 61.5 µM.
On to `CC1=C(/C=C/C(=O)O)C(C)(C)CCC1`, for which the TGI in [1], in [2], in assay [3], in assay [4], in assay [5] and in assay [6] was more than 100 µM each time. Moreover, the TGI in assay [7], in assay [8], in assay [9] and in [10] was more than 100 µM each time.
Turning to `CCCCOc1ccc(NC(=O)n2nc(N)c3ccccc32)cc1`, the GI50 in assay [1] was 11.5 µM; in assay [2] it was 21 µM; in [3], 13.9 µM; in assay [4], 14 µM; in assay [5] it was 17.7 µM; in assay [6] it was 29.6 µM. Also, the GI50 was 23.9 µM in assay [7], 30.3 µM in assay [8], 18 µM in assay [9] and 29.1 µM in assay [10]. For the same molecule, the TGI in assay [1] was 50.4 µM; in assay [2] it was more than 85.2 µM; in assay [3] it was 54.1 µM; in assay [4], 41.5 µM; in assay [5], 42.2 µM; in assay [6] it was 82.4 µM. The TGI in assay [7] is 71.1 µM; in assay [8], more than 85.9 µM; in [9], 41 µM; in [10] it was 71.9 µM.
`CCOC(=O)c1sc2ncn(Cc3cccc(Br)c3)c(=O)c2c1C`: the GI50 was 16.8 µM in [1]; 19.8 µM in [2]; 25.5 µM in [3]; 12.5 µM in assay [4]; 20.9 µM in assay [5]; 69.2 µM in assay [6]. The GI50 in [7] is 18.9 µM; in [8] it was 51.1 µM; in [9] it was 61.5 µM; in assay [10] it was 24.6 µM. For the same molecule, the TGI in [1] is more than 100 µM; in assay [2] it was 85 µM; in [3], more than 100 µM; in assay [4], 74.8 µM; in assay [5], 53.8 µM; in [6] it was more than 100 µM. The TGI is more than 100 µM in assay [7], more than 100 µM in assay [8], more than 100 µM in assay [9] and 97.5 µM in assay [10].
On to `O=C1c2cccnc2C(=O)C2C3C=CC(C3)C12` (stereo not given), for which the TGI amounted to 34.9 µM in assay [1]; 32 µM in assay [2]; 21.8 µM in [3]; 9.97 µM in [4]; 28 µM in assay [5]; 25.8 µM in assay [6]. Further, the TGI in [7] is more than 100 µM; in [8] it was 30 µM; in assay [9], 26.5 µM; in [10], 31.9 µM.
